Data as given in patent US12421211B2, “Heterocyclic compounds” (Hoffmann-La Roche Inc., priority 2021, dated 2025).
Counter-ions that a name gives are not always drawn.

tested on: Acinetobacter baumannii ATCC17961; assay: Antimicrobial susceptibility testing: 90% growth inhibitory concentration (IC90) determination; assay type: cell-based; conditions: Acinetobacter baumannii, ATCC17961, 16 h, 90% growth inhibitory concentration, Acinetobacter baumannii ATCC17961, Iso-Sensitest broth, OD 600 nm over 16 h; read-out: ATCC 17961 IC90
In short: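 A. baumannii ATCC17961 at ~5×10^5 CFU/ml in Iso-Sensitest broth exposed to 10-point twofold dilutions (e.g. 50–0.097 μM final), 35±2° C. OD600 read every 20 minutes over 16h; IC50 and IC90 derived from inhibition during logarithmic growth.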

| IC90 | SMILES |
| --- | --- |
| 118 nM | COCCn1ncc(-c2ccc(-c3cnc(C(=O)Nc4ccc(C(=O)N5CCN(C(=O)[C@H]6CC[N@+](CC(=O)O)(CC7CNC7)CC6)CC5)c(Cl)c4)n3C)c(C)c2F)c1C [Example O4, cis 2-[1-(azetidin-3-ylmethyl)-4-[4-[2-chloro-4-[[5-[3-fluoro-4-[1-(2-methoxyethyl)-5-methyl-pyrazol-4-yl]-2-methyl-phenyl]-1-methyl-imidazole-2-carbonyl]amino]benzoyl]piperazine-1-carbonyl]piperidin-1-ium-1-yl]acetic acid formate] |
| 200 nM | COCCn1ncc(-c2ccc(-c3cnc(C(=O)Nc4ccc(C(=O)N5CCN(C(=O)CCC[N+](C)(CCCN)CC(=O)O)CC5)c(Cl)c4)n3C)c(C)c2F)c1C (centres unmarked) [Example O5, 3-aminopropyl-(carboxymethyl)-[4-[4-[2-chloro-4-[[5-[3-fluoro-4-[1-(2-methoxyethyl)-5-methyl-pyrazol-4-yl]-2-methyl-phenyl]-1-methyl-imidazole-2-carbonyl]amino]benzoyl]piperazino]-4-keto-butyl]-methyl-ammonium. 1:12,2,2-trifluoroacetic acid; 2,2,2-trifluoroacetate] |
| 339 nM | COCCn1ncc(-c2ccc(-c3cnc(C(=O)Nc4ccc(C(=O)N5CCC(C(=O)NCCCc6cc[n+](CC(=O)O)c(CCCN)c6)CC5)c(Cl)c4)n3C)c(F)c2F)c1C [Example O12, 2-[2-(3-aminopropyl)-4-[3-[[1-[2-chloro-4-[[5-[2,3-difluoro-4-[1-(2-methoxyethyl)-5-methyl-pyrazol-4-yl]phenyl]-1-methyl-imidazole-2-carbonyl]amino]benzoyl]isonipecotoyl]amino]-propyl]pyridin-1-ium-1-yl]acetic acid; formate] |
| 191 nM | COCCn1ncc(-c2ccc(-c3cnc(C(=O)Nc4ccc(C(=O)N5CCN(C(=O)CCC[N+](C)(CC(=O)O)CC6CNC6)CC5)c(Cl)c4)n3C)c(F)c2F)c1C (centres unmarked) [Example P1, azetidin-3-ylmethyl-(carboxymethyl)-[4-[4-[2-chloro-4-[[5-[2,3-difluoro-4-[1-(2-methoxyethyl)-5-methyl-pyrazol-4-yl]phenyl]-1-methyl-imidazole-2-carbonyl]amino]benzoyl]piperazin-1-yl]-4-oxo-butyl]-methyl-ammonium; formate] |
| 293 nM | COCCn1ncc(-c2ccc(-c3cnc(C(=O)Nc4ccc(C(=O)N5CCN(C(=O)CCC[N+](C)(CCCN)CCCN)CC5)c(Cl)c4)n3C)c(F)c2F)c1C [Example P3, bis(3-aminopropyl)-[4-[4-[2-chloro-4-[[5-[2,3-difluoro-4-[1-(2-methoxyethyl)-5-methyl-pyrazol-4-yl]phenyl]-1-methyl-imidazole-2-carbonyl]amino]benzoyl]piperazin-1-yl]-4-oxo-butyl]-methyl-ammonium; formate] |
| 657 nM | COCCn1ncc(-c2ccc(-c3cnc(C(=O)Nc4ccc(C(=O)N5CCN(C(=O)CCC[N+](CCN(C)C)(CCN(C)C)CC(=O)O)CC5)c(Cl)c4)n3C)c(F)c2F)c1C [Example P4, carboxymethyl-[4-[4-[2-chloro-4-[[5-[2,3-difluoro-4-[1-(2-methoxyethyl)-5-methyl-pyrazol-4-yl]phenyl]-1-methyl-imidazole-2-carbonyl]amino]benzoyl]piperazin-1-yl]-4-oxo-butyl]-bis[2-(dimethylamino)ethyl]ammonium; 2,2,2-trifluoroacetate] |
| 295 nM | COCCn1ncc(-c2ccc(-c3cnc(C(=O)Nc4ccc(C(=O)N5CCN(C(=O)CCCC(=O)N6CC[N+](CCCN)(CC(=O)O)CC6)CC5)c(Cl)c4)n3C)c(F)c2F)c1C [Example P5, 2-[1-(3-aminopropyl)-4-[5-[4-[2-chloro-4-[[5-[2,3-difluoro-4-[1-(2-methoxyethyl)-5-methyl-pyrazol-4-yl]phenyl]-1-methyl-imidazole-2-carbonyl]amino]benzoyl]piperazino]-5-keto-pentanoyl]piperazin-1-ium-1-yl]acetic acid; formate] |
| 310 nM | COCCn1ncc(-c2ccc(-c3cnc(C(=O)Nc4ccc(C(=O)N5CCN(C(=O)CCCC(=O)N6CC[N+](CC(=O)O)(CC7CNC7)CC6)CC5)c(Cl)c4)n3C)c(F)c2F)c1C [Example P6, 2-[1-(azetidin-3-ylmethyl)-4-[5-[4-[2-chloro-4-[[5-[2,3-difluoro-4-[1-(2-methoxyethyl)-5-methyl-pyrazol-4-yl]phenyl]-1-methyl-imidazole-2-carbonyl]amino]benzoyl]piperazino]-5-keto-pentanoyl]piperazin-1-ium-1-yl]acetic acid; 1:1 formate] |

same assay, conditions: Acinetobacter baumannii, ATCC17961, 16 h, read-out: ATCC 17961 IC90

| SMILES | IC90 |
| --- | --- |
| COCCn1ncc(-c2ccc(-c3cnc(C(=O)Nc4ccc(C(=O)N5CCC(N(C)C(=O)C6CC[N+](CC(=O)O)(CC7CNC7)CC6)CC5)c(Cl)c4)n3C)c(F)c2F)c1C (centres unmarked) [Example O1, 2-[1-(azetidin-3-ylmethyl)-4-[[1-[2-chloro-4-[[5-[2,3-difluoro-4-[1-(2-methoxyethyl)-5-methyl-pyrazol-4-yl]phenyl]-1-methyl-imidazole-2-carbonyl]amino]benzoyl]-4-piperidyl]-methyl-carbamoyl]piperidin-1-ium-1-yl]acetic acid formate] | 354 nM |
| COCCn1ncc(-c2ccc(-c3cnc(C(=O)Nc4ccc(C(=O)N[C@H]5[C@@H]6CN(C(=O)C7CC[N+](CC(=O)O)(CC8CNC8)CC7)C[C@@H]65)c(Cl)c4)n3C)c(F)c2F)c1C (stereo partly drawn) [Example O2, 2-[1-(azetidin-3-ylmethyl)-4-[(1S,5R) 6-[[2-chloro-4-[[5-[2,3-difluoro-4-[1-(2-methoxyethyl)-5-methyl-pyrazol-4-yl]phenyl]-1-methyl-imidazole-2-carbonyl]amino]benzoyl]amino]-3-azabicyclo[3.1.0]hexane-3-carbonyl]piperidin-1-ium-1-yl]acetic acid formate] | 362 nM |
| COCCn1ncc(-c2ccc(-c3cnc(C(=O)Nc4ccc(C(=O)N5CCN(C(=O)CCC[N+](CCCCN)(CCCCN)CC(=O)O)CC5C)c(Cl)c4)n3C)c(F)c2F)c1C (centres unmarked) [Example O3, bis(4-aminobutyl)-(carboxymethyl)-[4-[4-[2-chloro-4-[[5-[2,3-difluoro-4-[1-(2-methoxyethyl)-5-methyl-pyrazol-4-yl]phenyl]-1-methyl-imidazole-2-carbonyl]amino]benzoyl]-3-methyl-piperazino]-4-keto-butyl]ammonium formate] | 113 nM |
| COCCn1cc(-c2ccc(-c3cnc(C(=O)Nc4ccc(C(=O)N5CCN(C(=O)[C@H]6CC[N@+](CC(=O)O)(CC7CNC7)CC6)CC5)c(C)c4)n3C)c(F)c2F)c(C)n1 [Example O8, cis 2-[1-(azetidin-3-ylmethyl)-4-[4-[4-[[5-[2,3-difluoro-4-[1-(2-methoxyethyl)-3-methylpyrazol-4-yl]phenyl]-1-methylimidazole-2-carbonyl]amino]-2-methylbenzoyl]piperazine-1-carbonyl]piperidin-1-ium-1-yl]acetic acid formate] | 245 nM |
| COCCn1cc(-c2ccc(-c3cnc(C(=O)Nc4ccc(C(=O)N5CCN(C(=O)[C@H]6CC[N@+](CC(=O)O)(CC7CNC7)CC6)CC5)c(C)c4)n3C)cc2F)c(C)n1 [Example O9, cis 2-[1-(azetidin-3-ylmethyl)-4-[4-[4-[[5-[3-fluoro-4-[1-(2-methoxyethyl)-3-methyl-pyrazol-4-yl]phenyl]-1-methyl-imidazole-2-carbonyl]amino]-2-methyl-benzoyl]piperazine-1-carbonyl]piperidin-1-ium-1-yl]acetic acid formate] | 284 nM |
| COCCn1ncc(-c2ccc(-c3cnc(C(=O)Nc4ccc(C(=O)N5CCN(C(=O)[C@H]6CC[N@+](CC(=O)O)(CC7CNC7)CC6)CC5)c(C)c4)n3C)c(C)c2F)c1C [Example O10, cis 2-[1-(azetidin-3-ylmethyl)-4-[4-[4-[[5-[3-fluoro-4-[1-(2-methoxyethyl)-5-methylpyrazol-4-yl]-2-methylphenyl]-1-methylimidazole-2-carbonyl]amino]-2-methylbenzoyl]piperazine-1-carbonyl]piperidin-1-ium-1-yl]acetic acid; formate] | 231 nM |
| COCCn1ncc(-c2ccc(-c3cnc(C(=O)Nc4ccc(C(=O)N5CCN(C(=O)[C@@H]6C[C@@H](O)C[N+]6(C)C)CC5)c(Cl)c4)n3C)c(C)c2F)c1C [Example O11, N-[3-chloro-4-[4-[(2S,4R)-4-hydroxy-1,1-dimethyl-pyrrolidin-1-ium-2-carbonyl]piperazine-1-carbonyl]phenyl]-5-[3-fluoro-4-[1-(2-methoxyethyl)-5-methyl-pyrazol-4-yl]-2-methyl-phenyl]-1-methyl-imidazole-2-carboxamide; 2,2,2-trifluoroacetate] | 156 nM |
| COCCn1ncc(-c2ccc(-c3cnc(C(=O)Nc4ccc(C(=O)N5CCN(C(=O)CCC[N+](CCCCN)(CCCCN)CC(=O)O)CC5)c(Cl)c4)n3C)c(F)c2F)c1C [Example P2, bis(4-aminobutyl)-(carboxymethyl)-[4-[4-[2-chloro-4-[[5-[2,3-difluoro-4-[1-(2-methoxyethyl)-5-methyl-pyrazol-4-yl]phenyl]-1-methyl-imidazole-2-carbonyl]amino]benzoyl]piperazin-1-yl]-4-oxo-butyl]ammonium; formate] | 66 nM |
| COCCn1cc(-c2ccc(-c3cnc(C(=O)Nc4ccc(C(=O)N5CCN(C(=O)C6CC[N+]7(CCNC(=O)C7)CC6)CC5)c(Cl)c4)n3C)c(F)c2F)c(C)n1 (centres unmarked) [Example Q1, N-[3-chloro-4-[4-(4-oxo-3-aza-6-azoniaspiro[5.5]undecane-9-carbonyl)piperazine-1-carbonyl]phenyl]-5-[2,3-difluoro-4-[1-(2-methoxyethyl)-3-methyl-pyrazol-4-yl]phenyl]-1-methyl-imidazole-2-carboxamide; 2,2,2-trifluoroacetate] | 165 nM |
